Experimental data: US9233982B2, “Spiro tetrahydro—benzothiophen derivatives useful for the treatment neurodegenerative diseases” (Ares Trading S.A., priority 2012, dated 2016)
Counter-ions that a name gives are not always drawn.

Experiments:
BACE-1 [1] = biological target: T1, BACE-1 (Homo sapiens, UniProt P56817); assay: LanthaScreen BACE1 biochemical assay (TR-FRET)
Protocol: Biochemical Assay to Assess Compounds for Inhibition of BACE-1
The LanthaScreen™ BACE1 assay kit from Invitrogen (Catalogue number PV4748) was used as the primary assay in the screening cascade.
Briefly, the test compound was incubated with the enzyme and substrate for 1 hour at room temperature in a reaction volume of 15 μl and then 5 nM terbium labelled anti-biotin antibody was added to stop the reaction and the solution incubated for a further 1 hour at room temperature. The microplate was read on an Envision plate reader fitted with a photometric 340 nm excitation filter and the amount of substrate that had been cleaved was represented by the TR-FRET ratio, calculated by dividing the Fluorescein emission signal (520 nm) by the Terbium emission signal (495 nm).

BACE-1 [2] = biological target: T1, BACE-1; assay: HTRF cell based assay, Aβ1-40 peptide secreted by recombinant HEK293 cells; parameters: endogenous in cells; host or cells: recombinant HEK293 cells engineered to over-produce APP; details: Aβ1-40 secretion, recombinant HEK293 cells producing APP, overnight treatment; read-out: Cellular assay EC50 Ranges
Protocol: The cell based assay used to support the program utilized HTRF assay reagents from Cisbio (Catalogue number 62B40PEB) to quantify the amount of Aβ1-40 peptide secreted by recombinant HEK293 cells. The cells were engineered to produce high quantities of APP, the precursor for Aβ1-40 peptide, under hygromycin selection pressure. Briefly, cells were plated into 384-well microplates and allowed to settle for 2 hours prior to compound addition. Following overnight treatment with compound, the media containing secreted peptide was transferred into a low volume assay plate for quantification with HTRF immunoassay reagents. Adhering to the manufacturers protocol for quantification, a TR-FRET signal is obtained in the presence of the Aβ1-40 peptide following addition of a cryptate conjugated antibody and an XL665 conjugated antibody, each raised to a different epitope of the Aβ1-40 peptide. A low FRET signal is obtained when cells are treated with compounds that inhibit APP cleavage and peptide secretion.

T1 sequence (P56817 46-501): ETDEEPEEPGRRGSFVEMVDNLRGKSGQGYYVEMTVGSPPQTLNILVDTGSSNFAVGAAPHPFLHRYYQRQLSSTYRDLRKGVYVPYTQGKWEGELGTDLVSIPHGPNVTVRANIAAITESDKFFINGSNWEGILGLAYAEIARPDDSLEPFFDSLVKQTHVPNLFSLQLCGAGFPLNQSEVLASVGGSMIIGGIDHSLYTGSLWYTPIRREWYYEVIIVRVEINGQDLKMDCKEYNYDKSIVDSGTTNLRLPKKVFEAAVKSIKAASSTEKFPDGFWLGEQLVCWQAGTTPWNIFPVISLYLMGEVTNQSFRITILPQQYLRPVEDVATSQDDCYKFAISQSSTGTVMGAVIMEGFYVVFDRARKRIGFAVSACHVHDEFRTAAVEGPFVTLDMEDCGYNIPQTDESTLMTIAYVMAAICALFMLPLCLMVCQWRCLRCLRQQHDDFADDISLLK

| Compound | IC50 (BACE-1 [1]) | EC50 (BACE-1 [2]) |
| --- | --- | --- |
| CC1(C)CCc2sc(-c3cccc(C(F)(F)F)c3)cc2C12CCSC(N)=N2 (stereo not drawn) [Example 46, 5,5-dimethyl-2-(3-(trifluoromethyl)phenyl)-5′,6,6′,7-tetrahydro-5H-spiro[benzo[b]thiophene-4,4′-[1,3]thiazin]-2′-amine] | 5 to 65 µM | 5 to 50 µM |
| CN1C(=O)C2(CCCc3sc(-c4cccnc4)cc32)N=C1N (stereo not drawn) [Example 52] | 5 to 65 µM | 1 to 5 µM |
| CN1C(=O)C2(CCCc3sc(-c4cccc(Cl)c4)cc32)N=C1N (stereo not drawn) [Example 56] | 1 to 5 µM | 1 to 5 µM |
| N#Cc1cccc(-c2cc3c(s2)CCCC32N=C(N)N(Cc3ccccc3)C2=O)c1 (stereo not drawn) [Example 57, 3-(2′-amino-1′-benzyl-5′-oxo-1′,5′,6,7-tetrahydro-5H-spiro[benzo[b]thiophene-4,4′-imidazole]-2-yl)benzonitrile] | < 1 µM | 5 to 50 µM |
| CN1OC2(CCCc3sc(-c4cccc(C(F)(F)F)c4)cc32)N=C1N (stereo not drawn) [Example 58, 2′-methyl-2-(3-(trifluoromethyl)phenyl)-6,7-dihydro-2′H,5H-spiro[benzo[b]thiophene-4,5′-[1,2,4]oxadiazol]-3′-amine] | 1 to 5 µM | 5 to 50 µM |
| NC1=NC2(CCCc3sc(-c4cccc(C(F)(F)F)c4)cc32)ON1Cc1ccccc1 (stereo not drawn) [Example 59] | 1 to 5 µM | 5 to 50 µM |
| NC1=NC2(CCCc3cc(-c4cccc(-c5ccccc5)c4)sc32)CCS1 (stereo not drawn) [Example 61] | 1 to 5 µM | 5 to 50 µM |
| N#Cc1cccc(-c2cc3c(s2)C2(CCC3)CCSC(N)=N2)c1 (stereo not drawn) [Example 62] | 5 to 65 µM | 5 to 50 µM |

The next lines start with the values.

| IC50 (BACE-1 [1]) | EC50 (BACE-1 [2]) | Compound |
| --- | --- | --- |
| 1 to 5 µM | 5 to 50 µM | COc1cccc(-c2cccc(-c3cc4c(s3)CC(C)(C)CC43CCSC(N)=N3)c2)c1 (stereo not drawn) [Example 41, 2-(3′-methoxybiphenyl-3-yl)-6,6-dimethyl-5′,6,6′,7-tetrahydro-5H-spiro[benzo[b]thiophene-4,4′-[1,3]thiazin]-2′-amine, Formate Salt] |
| 1 to 5 µM | 5 to 50 µM | COc1ccc(-c2cccc(-c3cc4c(s3)CC(C)(C)CC43CCSC(N)=N3)c2)cc1 (stereo not drawn) [Example 42] |
| < 1 µM | ≤ 1 µM | CN1C(=O)C2(CCCc3sc(-c4cccc(C#N)c4)cc32)N=C1N (stereo not drawn) [Example 49, 3-(2′-amino-1′-methyl-5′-oxo-1′,5′,6,7-tetrahydro-5H-spiro[benzo[b]thiophene-4,4′-imidazole]-2-yl)benzonitrile] |
| 1 to 5 µM | 5 to 50 µM | CN1C(=O)C2(CCCc3sc(-c4cccc(OC(F)(F)F)c4)cc32)N=C1N (stereo not drawn) [Example 53] |
| < 1 µM | 1 to 5 µM | CN1C(=O)C2(CCCc3sc(-c4cccc(C(F)(F)F)c4)cc32)N=C1N (stereo not drawn) [Example 54] |
| 1 to 5 µM | 1 to 5 µM | COc1cc(C#N)cc(-c2cc3c(s2)CCCC32N=C(N)N(C)C2=O)c1 (stereo not drawn) [Example 55] |
| < 1 µM | 5 to 50 µM | N#Cc1cccc(-c2cc3c(s2)CCCC32N=C(N)N(Cc3ccccc3)O2)c1 (stereo not drawn) [Example 60] |
